How the values were obtained:
Experiment in all cases: Viral trapping in VLPs, MS analysis
Type in all cases: binding
[1] = biological target: T1, HSD17B12 (Homo sapiens, UniProt Q53GQ0); settings: all proteins (incl. low confidence identifications)
T1 construct: endogenous in cells; host or cells: HEK293T
Description: (§1) For mass spectrometry, 10^7 HEK293T cells were seeded in five flasks (75 cm^2) and transfected the next day with a total of 15 μg DNA per flask using polyethylene imine reagent. The following DNA quantities were used per flask: 7.5 μg of GAG-eDHFR, 5.4 μg of mock vector and 2.1 μg of a 50/50 mix of pMD2.G and pcDNA3-FLAG-VSV-G. The small molecule fusions were added immediately after transfection to the producing cells at a concentration of 1 μM. The same dilution of dimethyl sulfoxide (DMSO) was added in control experiments to control the effect of this chemical on the cells. The cellular supernatant was harvested after 32 hours and was centrifuged for 3 minutes at 450×g to remove cellular debris. The cleared supernatant was then filtered using 0.45 μm filters (Millipore). A total of 100 μl MyOne™ Streptavidin T1 beads (Life Technologies) pre-loaded with 10 μg ANTI-FLAG® BioM2-Biotin antibody (Sigma-Aldrich®) was used to bind the tagged particles. Particles were allowed to bind for 2 hours by end-over-end rotation. The total supernatant was processed in three consecutive binding steps. Bead-particle complexes were washed once with washing buffer (TWB: 20 mM Tris-HCl pH 7.5, 150 mM NaCl) and were then eluted with FLAG peptide (200 μg/ml in TWB) and lysed by addition of SDS to a final concentration of 0.1%. After 5 minutes, SDS was removed using HiPPR Detergent Removal Spin Columns (Pierce, Thermo Scientific) followed by boiling and overnight digestion with 0.5 μg sequence-grade trypsin (Promega). After acidification (0.1% TFA final), the peptides were separated by nano-LC and directly analyzed with a Q Exactive instrument (Thermo Scientific).
(§2) For tamoxifen, four biological repeats were performed where the cells were treated with MTX-PEG6-tamoxifen after transfection. The obtained protein lists after viral trapping and MS analysis were challenged with protein lists coming from the four DMSO controls, the 19 control experiments and the lists obtained for the MTX-PEG6-simvastatin and MTX-PEG6-reversine (see below) for a total of 30 samples.

[2] = biological target: T2, DNAJB12 (Homo sapiens, UniProt Q9NXW2); settings: all proteins (incl. low confidence identifications)
T2 construct: endogenous in cells; host or cells: HEK293T
Description: as §1, §2

[3] = biological target: T3, TBL2 (Homo sapiens, UniProt Q9Y4P3)
T3 construct: endogenous in cells; host or cells: HEK293T
Description: as §1, §2

[4] = biological target: T4, SEC61B (Homo sapiens, UniProt P60468); settings: all proteins (incl. low confidence identifications)
T4 construct: endogenous in cells; host or cells: HEK293T
Description: as §1, §2

[5] = biological target: T5, MDH2 (Homo sapiens, UniProt P40926)
T5 construct: endogenous in cells; host or cells: HEK293T
Description: as §1, §2

[6] = biological target: T6, REEP6 (Homo sapiens, UniProt Q96HR9)
T6 construct: endogenous in cells; host or cells: HEK293T
Description: as §1, §2

[7] = biological target: T7, ECE1 (Homo sapiens, UniProt P42892)
T7 construct: endogenous in cells; host or cells: HEK293T
Description: as §1, §2

[8] = biological target: T8, PTPLAD1 (Homo sapiens, UniProt Q9P035); settings: all proteins (incl. low confidence identifications)
T8 construct: endogenous in cells; host or cells: HEK293T
Description: as §1, §2

[9] = biological target: T9, ESYT1 (Homo sapiens, UniProt Q9BSJ8)
T9 construct: endogenous in cells; host or cells: HEK293T
Description: as §1, §2

[10] = biological target: T10, EI24 (Homo sapiens, UniProt O14681); settings: all proteins (incl. low confidence identifications)
T10 construct: endogenous in cells; host or cells: HEK293T
Description: as §1, §2

[11] = biological target: T11, RNF5 (Homo sapiens, UniProt Q99942); settings: all proteins (incl. low confidence identifications)
T11 construct: endogenous in cells; host or cells: HEK293T
Description: as §1, §2

[12] = biological target: T12, ILVBL (Homo sapiens, UniProt A1L0T0); settings: all proteins (incl. low confidence identifications)
T12 construct: endogenous in cells; host or cells: HEK293T
Description: as §1, §2

[13] = biological target: T13, PRAF2 (Homo sapiens, UniProt O60831); settings: all proteins (incl. low confidence identifications)
T13 construct: endogenous in cells; host or cells: HEK293T
Description: as §1, §2

[14] = biological target: T14, GRAMD4 (Homo sapiens, UniProt Q6IC98); settings: all proteins (incl. low confidence identifications)
T14 construct: endogenous in cells; host or cells: HEK293T
Description: as §1, §2

[15] = biological target: T15, LRRC59 (Homo sapiens, UniProt Q96AG4); settings: all proteins (incl. low confidence identifications)
T15 construct: endogenous in cells; host or cells: HEK293T
Description: as §1, §2

[16] = biological target: T16, VAPA (Homo sapiens, UniProt Q9P0L0)
T16 construct: endogenous in cells; host or cells: HEK293T
Description: as §1, §2

[17] = biological target: T17, REEP4 (Homo sapiens, UniProt Q9H6H4)
T17 construct: endogenous in cells; host or cells: HEK293T
Description: as §1, §2

[18] = biological target: T18, SEMA4G (Homo sapiens, UniProt Q9NTN9); settings: all proteins (incl. low confidence identifications)
T18 construct: endogenous in cells; host or cells: HEK293T
Description: as §1, §2

[19] = biological target: T19, UBQLN2 (Homo sapiens, UniProt Q9UHD9)
T19 construct: endogenous in cells; host or cells: HEK293T
Description: as §1, §2

[20] = biological target: T20, SSR3 (Homo sapiens, UniProt Q9UNL2); settings: all proteins (incl. low confidence identifications)
T20 construct: endogenous in cells; host or cells: HEK293T
Description: as §1, §2

[21] = all proteins (incl. low confidence identifications)
[22] = proteins identified with >1 peptide (high confidence)

T16 sequence (Q9P0L0 whole entry): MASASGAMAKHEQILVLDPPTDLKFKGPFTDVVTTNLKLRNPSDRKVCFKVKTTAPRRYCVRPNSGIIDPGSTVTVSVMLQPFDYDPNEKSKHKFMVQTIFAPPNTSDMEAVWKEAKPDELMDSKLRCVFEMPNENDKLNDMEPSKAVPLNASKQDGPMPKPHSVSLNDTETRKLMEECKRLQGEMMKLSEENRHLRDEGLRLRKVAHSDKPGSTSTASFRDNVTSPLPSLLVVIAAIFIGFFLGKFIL
T5 sequence (P40926 25-338): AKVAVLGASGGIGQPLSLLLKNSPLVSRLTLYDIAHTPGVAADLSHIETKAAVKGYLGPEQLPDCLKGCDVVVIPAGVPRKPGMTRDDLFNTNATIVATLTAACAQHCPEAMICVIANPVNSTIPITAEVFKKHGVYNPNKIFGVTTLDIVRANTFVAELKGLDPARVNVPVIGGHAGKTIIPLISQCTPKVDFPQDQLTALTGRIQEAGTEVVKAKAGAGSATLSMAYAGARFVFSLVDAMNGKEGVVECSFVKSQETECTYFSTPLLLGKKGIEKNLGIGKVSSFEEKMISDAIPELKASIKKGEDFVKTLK
T7 sequence (P42892 whole entry): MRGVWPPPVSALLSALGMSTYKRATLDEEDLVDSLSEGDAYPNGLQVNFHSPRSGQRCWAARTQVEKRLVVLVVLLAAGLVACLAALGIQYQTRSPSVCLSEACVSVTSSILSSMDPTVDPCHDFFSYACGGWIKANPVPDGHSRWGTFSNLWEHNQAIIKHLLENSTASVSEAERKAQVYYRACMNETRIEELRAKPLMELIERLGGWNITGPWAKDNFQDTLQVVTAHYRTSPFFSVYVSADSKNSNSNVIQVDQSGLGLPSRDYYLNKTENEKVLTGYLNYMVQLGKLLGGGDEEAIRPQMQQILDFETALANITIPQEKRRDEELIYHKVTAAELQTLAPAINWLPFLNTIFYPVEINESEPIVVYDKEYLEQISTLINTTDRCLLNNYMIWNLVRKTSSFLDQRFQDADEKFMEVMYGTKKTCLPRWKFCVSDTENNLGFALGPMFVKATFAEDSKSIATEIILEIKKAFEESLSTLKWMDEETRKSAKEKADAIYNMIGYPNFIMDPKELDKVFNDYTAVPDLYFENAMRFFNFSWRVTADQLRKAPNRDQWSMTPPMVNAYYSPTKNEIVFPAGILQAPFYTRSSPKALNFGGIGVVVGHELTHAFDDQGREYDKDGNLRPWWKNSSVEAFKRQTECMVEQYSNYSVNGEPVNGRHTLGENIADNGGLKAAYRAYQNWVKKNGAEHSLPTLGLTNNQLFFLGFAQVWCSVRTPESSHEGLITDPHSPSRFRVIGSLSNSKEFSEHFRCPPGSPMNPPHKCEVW
T6 sequence (Q96HR9 1-184 isoform Q96HR9-2): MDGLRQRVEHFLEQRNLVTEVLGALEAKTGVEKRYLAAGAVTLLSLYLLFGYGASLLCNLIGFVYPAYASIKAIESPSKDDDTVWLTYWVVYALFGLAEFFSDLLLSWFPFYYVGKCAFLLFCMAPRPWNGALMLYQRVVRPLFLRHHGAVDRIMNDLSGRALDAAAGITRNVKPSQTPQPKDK
T9 sequence (Q9BSJ8 whole entry): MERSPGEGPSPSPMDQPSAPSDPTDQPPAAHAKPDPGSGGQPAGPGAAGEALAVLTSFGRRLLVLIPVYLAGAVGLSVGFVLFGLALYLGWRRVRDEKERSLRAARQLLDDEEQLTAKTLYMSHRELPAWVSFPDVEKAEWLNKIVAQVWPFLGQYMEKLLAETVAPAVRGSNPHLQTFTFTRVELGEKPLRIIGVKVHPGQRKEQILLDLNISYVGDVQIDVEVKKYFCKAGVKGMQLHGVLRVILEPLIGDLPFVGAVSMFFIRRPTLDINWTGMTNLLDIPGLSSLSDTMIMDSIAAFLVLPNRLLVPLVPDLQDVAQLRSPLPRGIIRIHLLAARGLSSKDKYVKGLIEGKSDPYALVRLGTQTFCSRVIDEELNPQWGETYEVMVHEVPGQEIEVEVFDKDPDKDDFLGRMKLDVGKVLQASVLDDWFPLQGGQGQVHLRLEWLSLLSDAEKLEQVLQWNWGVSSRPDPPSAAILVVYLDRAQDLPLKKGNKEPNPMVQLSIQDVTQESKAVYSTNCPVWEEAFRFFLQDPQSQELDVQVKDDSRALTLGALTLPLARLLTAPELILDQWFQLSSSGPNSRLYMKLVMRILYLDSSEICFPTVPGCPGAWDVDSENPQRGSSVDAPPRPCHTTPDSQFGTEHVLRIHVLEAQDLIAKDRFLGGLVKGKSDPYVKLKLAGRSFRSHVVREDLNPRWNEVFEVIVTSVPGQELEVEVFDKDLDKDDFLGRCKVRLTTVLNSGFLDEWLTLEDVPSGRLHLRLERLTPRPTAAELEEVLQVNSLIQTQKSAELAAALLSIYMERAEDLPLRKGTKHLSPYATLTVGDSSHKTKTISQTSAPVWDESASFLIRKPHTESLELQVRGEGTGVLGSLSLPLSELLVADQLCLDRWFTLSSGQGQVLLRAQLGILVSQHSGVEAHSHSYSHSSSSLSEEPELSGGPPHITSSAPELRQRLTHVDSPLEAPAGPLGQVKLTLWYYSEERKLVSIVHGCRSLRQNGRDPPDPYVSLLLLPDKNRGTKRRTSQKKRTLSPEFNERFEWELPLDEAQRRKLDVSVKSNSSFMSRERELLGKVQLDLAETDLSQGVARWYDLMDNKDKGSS
T3 sequence (Q9Y4P3 whole entry): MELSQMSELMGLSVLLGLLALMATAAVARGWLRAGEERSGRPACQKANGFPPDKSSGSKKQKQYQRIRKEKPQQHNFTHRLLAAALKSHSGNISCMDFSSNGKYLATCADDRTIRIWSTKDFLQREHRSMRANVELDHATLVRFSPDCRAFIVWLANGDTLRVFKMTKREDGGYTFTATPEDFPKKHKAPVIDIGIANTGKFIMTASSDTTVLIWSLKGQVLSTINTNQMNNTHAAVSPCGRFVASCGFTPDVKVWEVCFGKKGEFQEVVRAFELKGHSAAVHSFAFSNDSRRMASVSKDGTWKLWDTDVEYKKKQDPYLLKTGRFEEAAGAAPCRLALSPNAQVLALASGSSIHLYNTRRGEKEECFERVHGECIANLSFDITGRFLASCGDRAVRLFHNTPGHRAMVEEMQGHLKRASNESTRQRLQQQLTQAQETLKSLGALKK
T17 sequence (Q9H6H4 whole entry): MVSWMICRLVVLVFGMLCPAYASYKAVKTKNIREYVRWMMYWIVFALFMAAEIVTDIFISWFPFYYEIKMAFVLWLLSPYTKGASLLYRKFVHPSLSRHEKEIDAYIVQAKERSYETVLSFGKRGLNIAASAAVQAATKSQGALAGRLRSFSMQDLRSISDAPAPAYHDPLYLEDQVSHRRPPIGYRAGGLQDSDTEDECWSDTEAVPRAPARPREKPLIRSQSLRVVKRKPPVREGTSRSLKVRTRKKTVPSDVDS
T19 sequence (Q9UHD9 whole entry): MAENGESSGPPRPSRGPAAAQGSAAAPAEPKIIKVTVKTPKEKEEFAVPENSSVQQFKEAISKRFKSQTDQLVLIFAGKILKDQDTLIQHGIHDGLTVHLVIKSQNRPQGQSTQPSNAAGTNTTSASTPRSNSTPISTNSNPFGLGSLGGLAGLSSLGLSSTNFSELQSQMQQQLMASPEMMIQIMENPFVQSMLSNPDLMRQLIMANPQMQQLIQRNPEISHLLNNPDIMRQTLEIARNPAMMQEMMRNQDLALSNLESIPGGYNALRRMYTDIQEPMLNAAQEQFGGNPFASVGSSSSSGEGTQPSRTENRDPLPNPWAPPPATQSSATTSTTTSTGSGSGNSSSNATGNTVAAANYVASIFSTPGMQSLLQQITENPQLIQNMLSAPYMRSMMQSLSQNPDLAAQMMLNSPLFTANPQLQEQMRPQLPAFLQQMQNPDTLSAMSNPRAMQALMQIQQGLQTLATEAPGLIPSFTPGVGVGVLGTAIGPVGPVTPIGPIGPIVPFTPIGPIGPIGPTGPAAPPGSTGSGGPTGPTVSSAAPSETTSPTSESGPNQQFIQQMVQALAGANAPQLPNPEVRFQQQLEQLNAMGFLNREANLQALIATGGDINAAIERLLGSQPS
T8 sequence (Q9P035 whole entry): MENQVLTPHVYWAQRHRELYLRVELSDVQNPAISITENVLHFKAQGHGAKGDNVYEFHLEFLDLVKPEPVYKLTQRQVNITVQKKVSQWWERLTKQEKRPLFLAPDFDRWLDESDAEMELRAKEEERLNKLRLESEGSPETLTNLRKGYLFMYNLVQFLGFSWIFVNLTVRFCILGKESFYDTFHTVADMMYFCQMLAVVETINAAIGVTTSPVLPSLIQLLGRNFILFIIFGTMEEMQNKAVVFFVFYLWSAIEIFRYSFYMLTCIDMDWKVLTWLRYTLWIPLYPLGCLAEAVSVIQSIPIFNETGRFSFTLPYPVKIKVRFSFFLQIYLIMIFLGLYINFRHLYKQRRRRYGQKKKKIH
T11 sequence (Q99942 whole entry): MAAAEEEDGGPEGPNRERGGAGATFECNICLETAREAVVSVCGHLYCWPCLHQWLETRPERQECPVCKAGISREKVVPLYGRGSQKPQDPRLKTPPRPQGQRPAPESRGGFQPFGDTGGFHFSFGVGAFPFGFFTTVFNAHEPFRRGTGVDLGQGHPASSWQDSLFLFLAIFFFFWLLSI
T2 sequence (Q9NXW2 whole entry): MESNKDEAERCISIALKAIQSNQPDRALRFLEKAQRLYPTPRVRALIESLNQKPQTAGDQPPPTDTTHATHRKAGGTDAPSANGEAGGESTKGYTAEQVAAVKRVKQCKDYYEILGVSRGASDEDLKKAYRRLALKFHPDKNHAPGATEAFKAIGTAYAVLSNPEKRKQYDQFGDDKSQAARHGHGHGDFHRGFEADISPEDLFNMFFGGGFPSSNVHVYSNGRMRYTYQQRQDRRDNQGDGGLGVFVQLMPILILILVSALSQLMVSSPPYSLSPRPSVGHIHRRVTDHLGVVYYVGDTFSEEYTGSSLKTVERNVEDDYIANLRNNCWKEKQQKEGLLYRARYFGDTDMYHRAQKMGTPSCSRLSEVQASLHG

## CCC(=C(c1ccccc1)c1ccc(OCCN(C)Cc2cn(CCOCCOCCOCCOCCOCCNC(=O)CCC(NC(=O)c3ccc(N(C)Cc4cnc5nc(N)nc(N)c5n4)cc3)C(=O)O)nn2)cc1)c1ccccc1 (stereo not shown) [MTX-PEG6-tamoxifen]
[1]
  Recurrence (x/4): 1 x/4
[2]
  Recurrence (x/4): 1 x/4
[3]; [21]
  Recurrence (x/4): 3 x/4
[3]; [22]
  Recurrence (x/4): 2 x/4
[4]
  Recurrence (x/4): 1 x/4
[5]; [21]
  Recurrence (x/4): 1 x/4
[5]; [22]
  Recurrence (x/4): 1 x/4
[6]; [21]
  Recurrence (x/4): 4 x/4
[6]; [22]
  Recurrence (x/4): 3 x/4
[7]; [21]
  Recurrence (x/4): 1 x/4
[7]; [22]
  Recurrence (x/4): 1 x/4
[8]
  Recurrence (x/4): 1 x/4
[9]; [21]
  Recurrence (x/4): 1 x/4
[9]; [22]
  Recurrence (x/4): 1 x/4
[10]
  Recurrence (x/4): 2 x/4
[11]
  Recurrence (x/4): 3 x/4
[12]
  Recurrence (x/4): 1 x/4
[13]
  Recurrence (x/4): 1 x/4
[14]
  Recurrence (x/4): 1 x/4
[15]
  Recurrence (x/4): 1 x/4
[16]; [21]
  Recurrence (x/4): 1 x/4
[16]; [22]
  Recurrence (x/4): 1 x/4
[17]; [21]
  Recurrence (x/4): 2 x/4
[17]; [22]
  Recurrence (x/4): 2 x/4
[18]
  Recurrence (x/4): 1 x/4
[19]; [21]
  Recurrence (x/4): 1 x/4
[19]; [22]
  Recurrence (x/4): 1 x/4
[20]
  Recurrence (x/4): 1 x/4

Source: patent publication US11231416B2, “Virus-like particle (VLP) based small molecule-protein interaction trap” (VIB VZW, priority 2015, dated 2022)
